Measured values reported in US8658698B2, “Insecticidal compounds” (Syngenta Crop Protection, LLC, priority 2008, dated 2014).

What was measured:
Assay type in all cases: in vivo
[1] = system: Myzus persicae (Green Peach Aphid); assay: Myzus persicae sucrose solution feeding test; details: same protocol, 12.5 ppm, 6 days
Method: (§1) This Example illustrates the pesticidal/insecticidal properties of compounds of formula (I). The tests were performed as follows:
(§2) Cotton leaf discs were placed on agar in a 24-well microtiter plate and sprayed with test solutions at an application rate of 200 ppm. After drying, the leaf discs were infested with 5 L1 larvae. The samples were checked for mortality, feeding behavior, and growth regulation 3 days after treatment (DAT). The following compounds gave at least 80% control of Spodoptera littoralis: A2, A6, A8, A9, A10, A11, A13, A15, A19, A20, A22, A25, A27, A29, A31, A33, A35, A41, A50, A55, A60, A65, A73, A88, A92, and A94. Heliothis virescens (Tobacco Budworm): Eggs (0-24 h old) were placed in 24-well microtiter plate on artificial diet and treated with test solutions at an application rate of 200 ppm (concentration in well 18 ppm) by pipetting. After an incubation period of 4 days, samples were checked for egg mortality, larval mortality and growth regulation. The following compounds gave at least 80% control of Heliothis virescens: A2, A3, A4, A5, A6, A7, A9, A10, A11, A13, A15, A19, A20, A22, A25, A26, A27, A28, A29, A31, A32, A33, A35, A38, A40, A41, A43, A46, A55, A59, A60, A65, A69, A70, A71, A73, A74, A75, A77, A79, A80, A82, A86, A88, A89, A90, A92, A94, A96, A98, and A100. Plutella xylostella (Diamond Back Moth): A 24-well microtiter plate (MTP) with artificial diet was treated with test solutions at an application rate of 200 ppm (concentration in well 18 ppm) by pipetting. After drying, the MTP's were infested with L2 larvae (7-12 per well). After an incubation period of 6 days, samples were checked for larval mortality and growth regulation. The following compounds gave at least 80% control of Plutella xylostella: A3, A4, A5, A6, A7, A8, A10, A15, A16, A18, A19, A20, A22, A25, A26, A27, A28, A29, A31, A32, A33, A35, A38, A40, A55, A69, A71, A73, A74, A75, A76, A77, A78, A80, A82, A86, A87, A88, A89, A92, A94, A96, A97, A98, and A99. Diabrotica balteata (Corn Root Worm): A 24-well microtiter plate (MTP) with artificial diet was treated with test solutions at an application rate of 200 ppm (concentration in well 18 ppm) by pipetting. After drying, the MTP's were infested with larvae (L2) (6-10 per well). After an incubation period of 5 days, samples were checked for larval mortality, and growth regulation. The following compounds gave at least 80% control of Diabrotica balteata: A5, A6, A7, A14, A15, A18, A24, A35, A53, A55, A70, A71, A75, A79, A84, A85, A88, A92, A93, A95, A96, A97, A98, A99, A100, A101, A102, A103, and A104. Myzus persicae (Green Peach Aphid): Each well of a 24-well microtiter plate is filled with 0.6 ml 30% sucrose solution, containing 12.5 ppm of the test compounds. The wells are covered with streched parafilm and infested with a mixed population of Myzus persicae. After an incubation period of 6 days, samples are checked for mortality (feeding activity). The following compounds gave at least 80% control of Myzus persicae: A4, A6, A10, A11, A15, A19, A20, A24, A27, A29, A33, A34, A36, A37, A39, A40, A41, A42, A43, A44, A45, A46, A47, A48, A49, A55, A60, and A82. Tetranychus urticae (Two-Spotted Spider Mite): Bean leaf discs on agar in 24-well microtiter plates were sprayed with test solutions at an application rate of 200 ppm. After drying, the leaf discs are infested with mite populations of mixed ages. 8 days later, discs are checked for egg mortality, larval mortality, and adult mortality. The following compounds gave at least 80% control of Tetranychus urticae: A6, A11, A15, A19, A20, A22, A26, A35, A58, and A64.

[2] = system: Diabrotica balteata (Corn Root Worm); assay: Diabrotica balteata larvae test on artificial diet; details: same protocol, 200 ppm (18 ppm in well), 5 days
Method: as §1, §2

[3] = system: Plutella xylostella (Diamond Back Moth); assay: Plutella xylostella larvae test on artificial diet; details: same protocol, 200 ppm (18 ppm in well), 6 days
Method: as §1, §2

[4] = system: Heliothis virescens (Tobacco Budworm); assay: Heliothis virescens egg test on artificial diet; details: same protocol, 200 ppm (18 ppm in well), 4 days
Method: as §1, §2

[5] = system: Spodoptera littoralis (Egyptian Cotton Leafworm); assay: Spodoptera littoralis cotton leaf disc spray test; details: same protocol, 200 ppm, 3 DAT
Method: as §1
Spodoptera littoralis (Egyptian Cotton Leafworm)
as §2

[6] = system: Tetranychus urticae (Two-Spotted Spider Mite); assay: Tetranychus urticae bean leaf disc spray test; details: same protocol, 200 ppm, 8 days
Method: as §1, §2

Measured: effect on mortality, feeding behavior, or growth regulation

CCCCNC(=O)c1ccc(C(=O)Nc2c(C)cc(C(F)(C(F)(F)F)C(F)(F)F)cc2C)cc1C [A1, N-1-butyl-N-4-[2,6-dimethyl-4-(1,2,2,2-tetrafluoro-1-trifluoro-methyl-ethyl)-phenyl]-2-methyl-terephthalamide]
no or little effect: all assays above

CCOC(=O)C1CC=CCC1NC(=O)c1ccc(C(=O)Nc2c(C)cc(C(F)(C(F)(F)F)C(F)(F)C(F)(F)F)cc2CC)cc1C (stereo not drawn) [A12]
no or little effect: all assays above

CCc1cc(C(F)(C(F)(F)F)C(F)(F)C(F)(F)F)cc(C)c1NC(=O)c1ccc(C(=O)NC(C)COC)c(C)c1 (stereo not drawn) [A17]
no or little effect: all assays above

CCc1cc(C(F)(C(F)(F)F)C(F)(F)C(F)(F)F)cc(C)c1NC(=O)c1ccc(C(=O)NC2CCCCC2C)c(C)c1 (stereo not drawn) [A21]
no or little effect: all assays above

CCc1cc(C(F)(C(F)(F)F)C(F)(F)C(F)(F)F)cc(C)c1NC(=O)c1ccc(C(=O)NCCCN2CCCC2)c(C)c1 (stereo not drawn) [A23]
no or little effect: all assays above

CCc1cc(C(F)(C(F)(F)F)C(F)(F)C(F)(F)F)cc(C)c1NC(=O)c1ccc(C(=O)NCc2ccccc2OC(F)(F)F)c(C)c1 (stereo not drawn) [A30]
no or little effect: all assays above

CCc1cc(C(F)(C(F)(F)F)C(F)(F)C(F)(F)F)cc(C)c1NC(=O)c1ccc(C(=O)Nc2ccccc2-c2cc3ccccc3[nH]2)c(C)c1 (stereo not drawn) [A51]
no or little effect: all assays above

CCc1cc(C(F)(C(F)(F)F)C(F)(F)C(F)(F)F)cc(C)c1NC(=O)c1ccc(C(=O)Nc2ccccc2N2CCOCC2)c(C)c1 (stereo not drawn) [A52]
no or little effect: all assays above

CCc1cc(C(F)(C(F)(F)F)C(F)(F)C(F)(F)F)cc(C)c1NC(=O)c1ccc(C(=O)Nc2cc(C)nn2C)c(C)c1 (stereo not drawn) [A54]
no or little effect: all assays above

CCc1cc(C(F)(C(F)(F)F)C(F)(F)C(F)(F)F)cc(C)c1NC(=O)c1ccc(C(=O)Nc2n[nH]c(SC)n2)c(C)c1 (stereo not drawn) [A56]
no or little effect: all assays above

CCc1cc(C(F)(C(F)(F)F)C(F)(F)C(F)(F)F)cc(C)c1NC(=O)c1ccc(C(=O)Nc2ncccc2C)c(C)c1 (stereo not drawn) [A57]
no or little effect: all assays above

CCc1cc(C(F)(C(F)(F)F)C(F)(F)C(F)(F)F)cc(C)c1NC(=O)c1ccc(C(=O)Nc2cc(-c3ccccc3)[nH]n2)c(C)c1 (stereo not drawn) [A61]
no or little effect: all assays above
